The record followed here is the OligoGym collection.

Oligonucleotides are given in HELM: sugar(base)linkage, 5' to 3'; d 2'-deoxyribose, r ribose, m 2'-O-methylribose, p phosphate. ss, as = sense and antisense strand
Further: test concentration or dose not given here.

This data set addresses UBE2D3. Nature of the data set: reporter assay of Huesken 2005. Conditions: siRNA. On the technique in general: In a reporter assay the amount or activity of a reporter protein is the signal.
Take “RNA1{r(A)p.r(G)p.r(C)p.r(A)p.r(C)p.r(A)p.r(A)p.r(U)p.r(G)p.r(U)p.r(U)p.r(C)p.r(U)p.r(G)p.r(C)p.r(A)p.r(G)p.r(G)p.r(U)p.d(T)p.d(T)}|RNA2{r(A)p.r(C)p.r(C)p.r(U)p.r(G)p.r(C)p.r(A)p.r(G)p.r(A)p.r(A)p.r(C)p.r(A)p.r(U)p.r(U)p.r(G)p.r(U)p.r(G)p.r(C)p.r(U)p.d(G)p.d(G)}$$$RNA1{StrandType:ss}|RNA2{StrandType:as}$”: the normalised inhibition (eCFP-eYFP dual reporter) was 102%.
Then “RNA1{r(A)p.r(G)p.r(C)p.r(A)p.r(U)p.r(U)p.r(U)p.r(G)p.r(U)p.r(C)p.r(U)p.r(C)p.r(G)p.r(A)p.r(U)p.r(A)p.r(U)p.r(U)p.r(C)p.d(T)p.d(T)}|RNA2{r(G)p.r(A)p.r(A)p.r(U)p.r(A)p.r(U)p.r(C)p.r(G)p.r(A)p.r(G)p.r(A)p.r(C)p.r(A)p.r(A)p.r(A)p.r(U)p.r(G)p.r(C)p.r(U)p.d(G)p.d(C)}$$$RNA1{StrandType:ss}|RNA2{StrandType:as}$”, with 79.2%; and “RNA1{r(A)p.r(G)p.r(G)p.r(U)p.r(U)p.r(G)p.r(C)p.r(A)p.r(U)p.r(U)p.r(U)p.r(A)p.r(C)p.r(A)p.r(A)p.r(C)p.r(A)p.r(A)p.r(G)p.d(T)p.d(T)}|RNA2{r(C)p.r(U)p.r(U)p.r(G)p.r(U)p.r(U)p.r(G)p.r(U)p.r(A)p.r(A)p.r(A)p.r(U)p.r(G)p.r(C)p.r(A)p.r(A)p.r(C)p.r(C)p.r(U)p.d(T)p.d(A)}$$$RNA1{StrandType:ss}|RNA2{StrandType:as}$”, with 86.6%; and “RNA1{r(A)p.r(U)p.r(C)p.r(A)p.r(U)p.r(C)p.r(C)p.r(A)p.r(A)p.r(A)p.r(U)p.r(A)p.r(U)p.r(U)p.r(A)p.r(A)p.r(C)p.r(A)p.r(G)p.d(T)p.d(T)}|RNA2{r(C)p.r(U)p.r(G)p.r(U)p.r(U)p.r(A)p.r(A)p.r(U)p.r(A)p.r(U)p.r(U)p.r(U)p.r(G)p.r(G)p.r(A)p.r(U)p.r(G)p.r(A)p.r(U)p.d(A)p.d(A)}$$$RNA1{StrandType:ss}|RNA2{StrandType:as}$”, with 32%.
In the case of “RNA1{r(A)p.r(U)p.r(C)p.r(C)p.r(A)p.r(A)p.r(A)p.r(C)p.r(C)p.r(C)p.r(A)p.r(G)p.r(A)p.r(U)p.r(G)p.r(A)p.r(C)p.r(C)p.r(C)p.d(T)p.d(T)}|RNA2{r(G)p.r(G)p.r(G)p.r(U)p.r(C)p.r(A)p.r(U)p.r(C)p.r(U)p.r(G)p.r(G)p.r(G)p.r(U)p.r(U)p.r(U)p.r(G)p.r(G)p.r(A)p.r(U)p.d(C)p.d(A)}$$$RNA1{StrandType:ss}|RNA2{StrandType:as}$”, the normalised inhibition (eCFP-eYFP dual reporter) was determined as 44.5%.
Next, “RNA1{r(A)p.r(U)p.r(C)p.r(C)p.r(A)p.r(U)p.r(U)p.r(U)p.r(G)p.r(U)p.r(U)p.r(C)p.r(A)p.r(C)p.r(U)p.r(G)p.r(C)p.r(U)p.r(A)p.d(T)p.d(T)}|RNA2{r(U)p.r(A)p.r(G)p.r(C)p.r(A)p.r(G)p.r(U)p.r(G)p.r(A)p.r(A)p.r(C)p.r(A)p.r(A)p.r(A)p.r(U)p.r(G)p.r(G)p.r(A)p.r(U)p.d(A)p.d(A)}$$$RNA1{StrandType:ss}|RNA2{StrandType:as}$”: 96.1%; “RNA1{r(A)p.r(U)p.r(G)p.r(U)p.r(U)p.r(U)p.r(C)p.r(A)p.r(U)p.r(U)p.r(G)p.r(G)p.r(C)p.r(A)p.r(A)p.r(G)p.r(C)p.r(C)p.r(A)p.d(T)p.d(T)}|RNA2{r(U)p.r(G)p.r(G)p.r(C)p.r(U)p.r(U)p.r(G)p.r(C)p.r(C)p.r(A)p.r(A)p.r(U)p.r(G)p.r(A)p.r(A)p.r(A)p.r(C)p.r(A)p.r(U)p.d(A)p.d(T)}$$$RNA1{StrandType:ss}|RNA2{StrandType:as}$”: 90.7%; “RNA1{r(A)p.r(U)p.r(U)p.r(A)p.r(A)p.r(C)p.r(A)p.r(G)p.r(U)p.r(A)p.r(A)p.r(U)p.r(G)p.r(G)p.r(C)p.r(A)p.r(G)p.r(C)p.r(A)p.d(T)p.d(T)}|RNA2{r(U)p.r(G)p.r(C)p.r(U)p.r(G)p.r(C)p.r(C)p.r(A)p.r(U)p.r(U)p.r(A)p.r(C)p.r(U)p.r(G)p.r(U)p.r(U)p.r(A)p.r(A)p.r(U)p.d(A)p.d(T)}$$$RNA1{StrandType:ss}|RNA2{StrandType:as}$”: 57.6%.
For the substance “RNA1{r(A)p.r(U)p.r(U)p.r(A)p.r(U)p.r(G)p.r(G)p.r(G)p.r(A)p.r(C)p.r(C)p.r(U)p.r(A)p.r(A)p.r(U)p.r(G)p.r(A)p.r(C)p.r(A)p.d(T)p.d(T)}|RNA2{r(U)p.r(G)p.r(U)p.r(C)p.r(A)p.r(U)p.r(U)p.r(A)p.r(G)p.r(G)p.r(U)p.r(C)p.r(C)p.r(C)p.r(A)p.r(U)p.r(A)p.r(A)p.r(U)p.d(T)p.d(G)}$$$RNA1{StrandType:ss}|RNA2{StrandType:as}$”, the normalised inhibition (eCFP-eYFP dual reporter) worked out at 64.1%.
Then “RNA1{r(A)p.r(U)p.r(U)p.r(U)p.r(A)p.r(C)p.r(A)p.r(A)p.r(C)p.r(A)p.r(A)p.r(G)p.r(A)p.r(A)p.r(U)p.r(U)p.r(U)p.r(A)p.r(U)p.d(T)p.d(T)}|RNA2{r(A)p.r(U)p.r(A)p.r(A)p.r(A)p.r(U)p.r(U)p.r(C)p.r(U)p.r(U)p.r(G)p.r(U)p.r(U)p.r(G)p.r(U)p.r(A)p.r(A)p.r(A)p.r(U)p.d(G)p.d(C)}$$$RNA1{StrandType:ss}|RNA2{StrandType:as}$”, with 74.4%; and “RNA1{r(A)p.r(U)p.r(U)p.r(U)p.r(A)p.r(U)p.r(C)p.r(A)p.r(U)p.r(C)p.r(C)p.r(A)p.r(A)p.r(A)p.r(U)p.r(A)p.r(U)p.r(U)p.r(A)p.d(T)p.d(T)}|RNA2{r(U)p.r(A)p.r(A)p.r(U)p.r(A)p.r(U)p.r(U)p.r(U)p.r(G)p.r(G)p.r(A)p.r(U)p.r(G)p.r(A)p.r(U)p.r(A)p.r(A)p.r(A)p.r(U)p.d(T)p.d(C)}$$$RNA1{StrandType:ss}|RNA2{StrandType:as}$”, with 76.2%.
Next, “RNA1{r(C)p.r(A)p.r(A)p.r(G)p.r(A)p.r(A)p.r(U)p.r(U)p.r(U)p.r(A)p.r(U)p.r(C)p.r(A)p.r(U)p.r(C)p.r(C)p.r(A)p.r(A)p.r(A)p.d(T)p.d(T)}|RNA2{r(U)p.r(U)p.r(U)p.r(G)p.r(G)p.r(A)p.r(U)p.r(G)p.r(A)p.r(U)p.r(A)p.r(A)p.r(A)p.r(U)p.r(U)p.r(C)p.r(U)p.r(U)p.r(G)p.d(T)p.d(T)}$$$RNA1{StrandType:ss}|RNA2{StrandType:as}$”: 93.1%; “RNA1{r(C)p.r(A)p.r(A)p.r(G)p.r(C)p.r(C)p.r(A)p.r(C)p.r(A)p.r(A)p.r(U)p.r(U)p.r(A)p.r(U)p.r(G)p.r(G)p.r(G)p.r(A)p.r(C)p.d(T)p.d(T)}|RNA2{r(G)p.r(U)p.r(C)p.r(C)p.r(C)p.r(A)p.r(U)p.r(A)p.r(A)p.r(U)p.r(U)p.r(G)p.r(U)p.r(G)p.r(G)p.r(C)p.r(U)p.r(U)p.r(G)p.d(C)p.d(C)}$$$RNA1{StrandType:ss}|RNA2{StrandType:as}$”: 35.2%.
Next, “RNA1{r(C)p.r(A)p.r(A)p.r(G)p.r(G)p.r(C)p.r(G)p.r(G)p.r(U)p.r(G)p.r(U)p.r(A)p.r(U)p.r(U)p.r(C)p.r(U)p.r(U)p.r(U)p.r(U)p.d(T)p.d(T)}|RNA2{r(A)p.r(A)p.r(A)p.r(A)p.r(G)p.r(A)p.r(A)p.r(U)p.r(A)p.r(C)p.r(A)p.r(C)p.r(C)p.r(G)p.r(C)p.r(C)p.r(U)p.r(U)p.r(G)p.d(A)p.d(T)}$$$RNA1{StrandType:ss}|RNA2{StrandType:as}$”: 104%.
Turning to “RNA1{r(C)p.r(A)p.r(A)p.r(U)p.r(U)p.r(U)p.r(C)p.r(U)p.r(A)p.r(A)p.r(A)p.r(G)p.r(U)p.r(U)p.r(C)p.r(U)p.r(U)p.r(U)p.r(U)p.d(T)p.d(T)}|RNA2{r(A)p.r(A)p.r(A)p.r(A)p.r(G)p.r(A)p.r(A)p.r(C)p.r(U)p.r(U)p.r(U)p.r(A)p.r(G)p.r(A)p.r(A)p.r(A)p.r(U)p.r(U)p.r(G)p.d(T)p.d(T)}$$$RNA1{StrandType:ss}|RNA2{StrandType:as}$”, the normalised inhibition (eCFP-eYFP dual reporter) was 80.6%.
Next, “RNA1{r(C)p.r(A)p.r(G)p.r(C)p.r(A)p.r(C)p.r(A)p.r(A)p.r(U)p.r(G)p.r(U)p.r(U)p.r(C)p.r(U)p.r(G)p.r(C)p.r(A)p.r(G)p.r(G)p.d(T)p.d(T)}|RNA2{r(C)p.r(C)p.r(U)p.r(G)p.r(C)p.r(A)p.r(G)p.r(A)p.r(A)p.r(C)p.r(A)p.r(U)p.r(U)p.r(G)p.r(U)p.r(G)p.r(C)p.r(U)p.r(G)p.d(G)p.d(A)}$$$RNA1{StrandType:ss}|RNA2{StrandType:as}$”: 87.8%; “RNA1{r(C)p.r(A)p.r(G)p.r(C)p.r(A)p.r(U)p.r(U)p.r(U)p.r(G)p.r(U)p.r(C)p.r(U)p.r(C)p.r(G)p.r(A)p.r(U)p.r(A)p.r(U)p.r(U)p.d(T)p.d(T)}|RNA2{r(A)p.r(A)p.r(U)p.r(A)p.r(U)p.r(C)p.r(G)p.r(A)p.r(G)p.r(A)p.r(C)p.r(A)p.r(A)p.r(A)p.r(U)p.r(G)p.r(C)p.r(U)p.r(G)p.d(C)p.d(C)}$$$RNA1{StrandType:ss}|RNA2{StrandType:as}$”: 95.2%; “RNA1{r(C)p.r(A)p.r(G)p.r(U)p.r(A)p.r(A)p.r(U)p.r(G)p.r(G)p.r(C)p.r(A)p.r(G)p.r(C)p.r(A)p.r(U)p.r(U)p.r(U)p.r(G)p.r(U)p.d(T)p.d(T)}|RNA2{r(A)p.r(C)p.r(A)p.r(A)p.r(A)p.r(U)p.r(G)p.r(C)p.r(U)p.r(G)p.r(C)p.r(C)p.r(A)p.r(U)p.r(U)p.r(A)p.r(C)p.r(U)p.r(G)p.d(T)p.d(T)}$$$RNA1{StrandType:ss}|RNA2{StrandType:as}$”: 97.4%.
Next, “RNA1{r(C)p.r(A)p.r(U)p.r(U)p.r(G)p.r(G)p.r(C)p.r(A)p.r(A)p.r(G)p.r(C)p.r(C)p.r(A)p.r(C)p.r(A)p.r(A)p.r(U)p.r(U)p.r(A)p.d(T)p.d(T)}|RNA2{r(U)p.r(A)p.r(A)p.r(U)p.r(U)p.r(G)p.r(U)p.r(G)p.r(G)p.r(C)p.r(U)p.r(U)p.r(G)p.r(C)p.r(C)p.r(A)p.r(A)p.r(U)p.r(G)p.d(A)p.d(A)}$$$RNA1{StrandType:ss}|RNA2{StrandType:as}$”: 100%; “RNA1{r(C)p.r(A)p.r(U)p.r(U)p.r(U)p.r(A)p.r(C)p.r(A)p.r(A)p.r(C)p.r(A)p.r(A)p.r(G)p.r(A)p.r(A)p.r(U)p.r(U)p.r(U)p.r(A)p.d(T)p.d(T)}|RNA2{r(U)p.r(A)p.r(A)p.r(A)p.r(U)p.r(U)p.r(C)p.r(U)p.r(U)p.r(G)p.r(U)p.r(U)p.r(G)p.r(U)p.r(A)p.r(A)p.r(A)p.r(U)p.r(G)p.d(C)p.d(A)}$$$RNA1{StrandType:ss}|RNA2{StrandType:as}$”: 70%.
